Laboratory results: ChEMBL document CHEMBL1201862, “PubChem BioAssay data set” (2004)
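Following 48 hours of exposure in 96-well plates, responses at five concentrations were used to interpolate endpoints linearly. GI50 is the concentration that inhibits growth by half.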 Activity calls are given as the source filed them. Cut-off read from the data, not from the text of the source: active = GI50 up to about 1.1 µM and inactive = higher.

Key:
Experiment in all cases: NCI-60 cell line screen, 48 h
A498 = test system: A498
CAKI-1 = test system: CAKI-1
HT-29 = test system: HT-29
MDA-MB-231 = test system: MDA-MB-231
MDA-N = test system: MDA-N
MOLT-4 = test system: MOLT-4
OVCAR-5 = test system: OVCAR-5
PC-3 = test system: PC-3
SF-295 = test system: SF-295
SK-MEL-28 = test system: SK-MEL-28
SK-MEL-2 = test system: SK-MEL-2
SK-OV-3 = test system: SK-OV-3
SNB-75 = test system: SNB-75
SW-620 = test system: SW-620
U-251 = test system: U-251
UACC-257 = test system: UACC-257
CCRF-CEM = test system: CCRF-CEM
OVCAR-8 = test system: OVCAR-8
T47D = test system: T47D
HL-60 = test system: HL-60

Measured: GI50

Oc1ccc2ccccc2c1NCn1nc(CCCCCCCCc2nn(CNc3c(O)ccc4ccccc34)c(=S)o2)oc1=S
inactive: A498 > 100 µM | CAKI-1 > 100 µM | HT-29 25.5 µM | MDA-MB-231 > 100 µM | MDA-N 37.6 µM | MOLT-4 > 100 µM | OVCAR-5 > 100 µM | PC-3 > 100 µM | SF-295 > 100 µM | SK-MEL-28 > 100 µM | SK-MEL-2 > 100 µM | SK-OV-3 > 100 µM | SNB-75 > 100 µM | SW-620 > 100 µM | U-251 > 100 µM | UACC-257 > 100 µM

CC(=O)c1cccc(Nc2nc3ccc(Cl)cc3c3[nH]c4ccccc4c23)c1
inactive: CAKI-1 3.03 µM | CCRF-CEM 27.4 µM | HT-29 6.21 µM | MDA-MB-231 11.6 µM | MDA-N 7.74 µM | OVCAR-5 5.79 µM | OVCAR-8 5.12 µM | PC-3 5.86 µM | SF-295 2.45 µM | SK-MEL-2 3.36 µM | SK-OV-3 4.15 µM | SW-620 4.35 µM | T47D 6.52 µM | U-251 2.12 µM | UACC-257 13.4 µM

CN(C)CCC(/C=C/c1ccccc1)=N\Nc1ccc(Cl)c(Cl)c1
inactive: A498 4.63 µM | CAKI-1 2.61 µM | CCRF-CEM 2.91 µM | HL-60 2.7 µM | HT-29 2.24 µM | MOLT-4 2.44 µM | OVCAR-5 3.33 µM | OVCAR-8 2.7 µM | SF-295 3.78 µM | SK-MEL-28 9.33 µM | SK-MEL-2 2.49 µM | SK-OV-3 4.53 µM | SNB-75 2.27 µM | SW-620 3.45 µM | U-251 4.59 µM | UACC-257 3.33 µM

O=C(/C=C/c1ccc(Cl)cc1)c1ccncc1
inactive: A498 27 µM | CAKI-1 30.8 µM | CCRF-CEM 43.7 µM | HL-60 32 µM | HT-29 22.3 µM | MOLT-4 27 µM | OVCAR-5 > 100 µM | OVCAR-8 > 100 µM | SF-295 47.1 µM | SK-MEL-28 52.6 µM | SK-MEL-2 > 100 µM | SK-OV-3 > 100 µM | SNB-75 22.1 µM | SW-620 78 µM | U-251 44 µM | UACC-257 43.5 µM

CC(=O)OCC1OC(N2C(c3ccccc3)=CC(c3ccccc3)C(C#N)=C2S)C(OC(C)=O)C(OC(C)=O)C1OC(C)=O (stereo unspecified)
inactive: A498 20.2 µM | CAKI-1 3.08 µM | CCRF-CEM > 61.2 µM | HT-29 2.35 µM | MDA-MB-231 3.7 µM | MDA-N 2.02 µM | MOLT-4 48.6 µM | OVCAR-5 14.6 µM | OVCAR-8 3.88 µM | PC-3 2.77 µM | SF-295 2.04 µM | SK-MEL-28 8.95 µM | SK-MEL-2 2.27 µM | SNB-75 10.4 µM | SW-620 54.7 µM | T47D 3.99 µM | U-251 3.57 µM | UACC-257 3.63 µM

S=C1NCCN1C(=S)NC1CCCCC1
inactive: A498 18.8 µM | CAKI-1 25.4 µM | CCRF-CEM 45.2 µM | HL-60 40.7 µM | HT-29 21.8 µM | MDA-MB-231 44.8 µM | MDA-N 36.9 µM | MOLT-4 21.1 µM | OVCAR-5 > 100 µM | OVCAR-8 47.6 µM | SF-295 37.2 µM | SK-MEL-28 29 µM | SK-MEL-2 34.8 µM | SK-OV-3 39.4 µM | SNB-75 19 µM | SW-620 46 µM | T47D 27.7 µM | U-251 37 µM | UACC-257 26.2 µM

CCON1CC(C(=O)OC)=C(O)C1=O
inactive: A498 > 100 µM | CAKI-1 > 100 µM | HT-29 > 100 µM | MDA-MB-231 > 100 µM | MDA-N > 100 µM | MOLT-4 > 100 µM | OVCAR-5 > 100 µM | OVCAR-8 > 100 µM | PC-3 > 100 µM | SF-295 > 100 µM | SK-MEL-28 > 100 µM | SK-MEL-2 > 100 µM | SK-OV-3 > 100 µM | SNB-75 > 100 µM | SW-620 > 100 µM | T47D > 100 µM | U-251 > 100 µM | UACC-257 > 100 µM

CCO/C=N\c1c(C#N)c(-c2ccc(Cl)cc2)cn1-c1ccc(C)cc1
inactive: A498 > 100 µM | CAKI-1 > 100 µM | CCRF-CEM > 100 µM | HL-60 > 100 µM | HT-29 > 100 µM | MDA-MB-231 > 100 µM | MDA-N > 100 µM | OVCAR-5 > 100 µM | OVCAR-8 > 100 µM | PC-3 > 100 µM | SF-295 > 100 µM | SK-MEL-28 > 100 µM | SK-MEL-2 > 100 µM | SK-OV-3 > 100 µM | SNB-75 > 100 µM | SW-620 > 100 µM | U-251 > 100 µM | UACC-257 > 100 µM
